Data: US20250127790A1, “COMBINATION THERAPY USING VPS34 INHIBITORS” (Deciphera Pharmaceuticals, LLC, priority 2021, published 2025)

Tests used:
[1] = system: CT26 colorectal cancer cells; assay: qRT-PCR, combination with cGAMP, CT26 cells; type: cell-based, Mouse; conditions: 24 hours, 5 μM Compound 1 or 10 μM Compound 2, 10 mg/mL cGAMP
Procedure: (§1) CT26 cells were treated for 24 hours with DMSO or VPS34 inhibitors (5 μM Compound 1 or 10 μM Compound 2) in combination with 10 mg/mL STING agonist cGAMP (green bars). Cells were washed with PBS and RNA was isolated using the PureLink RNA kit (#12183018A, Thermo Fisher Scientific) according to the manufacturer's protocol. Genomic DNA was removed using DNA-binding columns (RNeasy plus kit, #74134, Qiagen) and/or DNase treatment (#12185010, Thermo Fisher Scientific). RNA was quantified using NanoDrop (Thermo Fisher Scientific) and 50 ng/μL RNA was used for cDNA synthesis with SuperScript IV VILO Master Mix (#11756050, Thermo Fisher Scientific). Quantitative RT-PCR (qRT-PCR) was run with diluted cDNA (1:25 or 1:12.5), PowerUp SYBR Green Master Mix (#A25741, Thermo Fisher Scientific), and 200 nM primers (see below) on a CFX Connect RT-PCR system (BioRad). Data was analyzed using the ΔΔCT method. Results are mean±SEM of three independent experiments.

[2] = system: Me30966 melanoma cells; assay: qRT-PCR with siSTING, Me30966 cells; type: cell-based, Human; conditions: 2 μM, 24 h; for increase in CCL5 mRNA expression / increase in CXCL10 mRNA expression / increase in IFNB1 mRNA expression: siSCR
Procedure: Me30966 cells were transfected with siSCR or siSTING. After 48 h, cells were treated with DMSO or 2 μM of VPS34 inhibitors (Compound 1 or Compound 2) for 24 h. Cells were washed with PBS and RNA was isolated using the PureLink RNA kit (#12183018A, Thermo Fisher Scientific) according to the manufacturer's protocol. Genomic DNA was removed using DNA-binding columns (RNeasy plus kit, #74134, Qiagen) and/or DNase treatment (#12185010, Thermo Fisher Scientific). RNA was quantified using NanoDrop (Thermo Fisher Scientific) and 50 ng/μL RNA was used for cDNA synthesis with SuperScript IV VILO Master Mix (#11756050, Thermo Fisher Scientific). Quantitative RT-PCR (qRT-PCR) was run with diluted cDNA (1:25 or 1:12.5), PowerUp SYBR Green Master Mix (#A25741, Thermo Fisher Scientific), and 200 nM primers (see below) on a CFX Connect RT-PCR system (BioRad). Data was analyzed using the ΔΔCT method. Results are mean±SEM of three independent experiments.

[3] = system: YUMM 1.7 melanoma cells; assay: qRT-PCR, combination with cGAMP, YUMM1.7 cells; type: cell-based, Mouse; conditions: 24 hours, 5 μM Compound 1 or 10 μM Compound 2, 10 mg/ml cGAMP
Procedure: as §1, with “YUMM1.7” for “CT26”, “mg/ml” for “mg/mL”

[4] = system: 786-O renal cell carcinoma cells; assay: qRT-PCR, Type 1 Interferon pathway gene expression in 786-O cells; type: cell-based, Human; conditions: 2 μM, 24 hr
Procedure: 786-O cells were grown in RPMI-1640 medium containing 10% fetal bovine serum. Cells were then incubated for 2 days at 37 degrees Celsius, 5% CO2, and 95% humidity. 786-O cells were incubated with 2 μM of compound 1 for 24 hr. Cells were washed with PBS and RNA was isolated using the PureLink RNA kit (#12183018A, Thermo Fisher Scientific) according to the manufacturer's protocol. Genomic DNA was removed using DNA-binding columns (RNeasy plus kit, #74134, Qiagen) and/or DNase treatment (#12185010, Thermo Fisher Scientific). RNA was quantified using NanoDrop (Thermo Fisher Scientific) and 50 ng/μL RNA was used for cDNA synthesis with SuperScript IV VILO Master Mix (#11756050, Thermo Fisher Scientific). Quantitative RT-PCR (qRT-PCR) was run with diluted cDNA (1:25 or 1:12.5), PowerUp SYBR Green Master Mix (#A25741, Thermo Fisher Scientific), and 200 nM primers (see below) on a CFX Connect RT-PCR system (BioRad). Data was analyzed using the ΔΔCT method. Results are mean±SEM of three independent experiments.

[5] = system: 4T1 breast cancer cells; assay: qRT-PCR, combination with cGAMP, 4T1 cells; type: cell-based, Mouse; conditions: 24 hours, 5 μM Compound 1 or 10 μM Compound 2, 10 mg/ml cGAMP
Procedure: as §1, with “4T1” for “CT26”, “mg/ml” for “mg/mL”

Structure (SMILES) | CCL5 mRNA expression [1] | CXCL10 mRNA expression [1] | increase in CCL5 mRNA expression [2] | increase in CXCL10 mRNA expression [2] | increase in IFNB1 mRNA expression [2] | CCL5 mRNA increase with siSTING [2] | CXCL10 mRNA increase with siSTING [2] | IFNB1 mRNA increase with siSTING [2] | CCL5 mRNA expression [3] | CXCL10 mRNA expression [3] | increase in mRNA expression of IRF9 [4] | CCL5 mRNA expression [5] | CXCL10 mRNA expression [5]
C[C@@H]1COCCN1c1cc(N2CCCC[C@@H]2C(F)(F)F)[nH]c(=O)c1 [Compound 1, 4-((R)-3-methylmorpholino)-6-((R)-2-(trifluoromethyl)piperidin-1-yl)pyridin-2(1H)-one] | increased | increased | ~10 fold | ~10 fold | ~5 fold | abolished | abolished | abolished | increased | did not increase | approximately 2 fold | increased | increased
C[C@@H]1COCCN1c1cc(=O)n2c(n1)N(Cc1cncc(Cl)c1)[C@H](C(F)(F)F)CC2 [Compound 2, (S)-9-((5-chloropyridin-3-yl)methyl)-2-((R)-3-methylmorpholino)-8-(trifluoromethyl)-6,7,8,9-tetrahydro-4H-pyrimido[1,2-a]pyrimidin-4-one] | increased | increased | ~10 fold | ~10 fold | ~5 fold | abolished | abolished | abolished | increased | did not increase | approximately 2 fold | increased | increased
